According to US7723358B2, “Aroyl-O-piperidine derivatives for the treatment of diabetes-related problems” (Merck Patent GmbH, priority 2004, dated 2010):

The compounds below were run against T1, microsomal triglyceride transfer protein (MTP) (Mesocricetus auratus, UniProt P55158) (assay: Inhibition of MTP activity: transfer of [3H]-triolein from donor liposomes to biotinylated LDL, SPA). Details: MTP from golden hamster liver; incubation 18-24 hours at 37° C.; read-out: IC50, concentration that allows a 50% inhibition of MTP.
T1 construct: The supernatant comprising the soluble MTP is dialysed against Tris/HCl 150 mM; from tissue; host or cells: golden hamster liver microsomes, deoxycholate-solubilised supernatant, dialysed
T1 sequence (P55158 19-895): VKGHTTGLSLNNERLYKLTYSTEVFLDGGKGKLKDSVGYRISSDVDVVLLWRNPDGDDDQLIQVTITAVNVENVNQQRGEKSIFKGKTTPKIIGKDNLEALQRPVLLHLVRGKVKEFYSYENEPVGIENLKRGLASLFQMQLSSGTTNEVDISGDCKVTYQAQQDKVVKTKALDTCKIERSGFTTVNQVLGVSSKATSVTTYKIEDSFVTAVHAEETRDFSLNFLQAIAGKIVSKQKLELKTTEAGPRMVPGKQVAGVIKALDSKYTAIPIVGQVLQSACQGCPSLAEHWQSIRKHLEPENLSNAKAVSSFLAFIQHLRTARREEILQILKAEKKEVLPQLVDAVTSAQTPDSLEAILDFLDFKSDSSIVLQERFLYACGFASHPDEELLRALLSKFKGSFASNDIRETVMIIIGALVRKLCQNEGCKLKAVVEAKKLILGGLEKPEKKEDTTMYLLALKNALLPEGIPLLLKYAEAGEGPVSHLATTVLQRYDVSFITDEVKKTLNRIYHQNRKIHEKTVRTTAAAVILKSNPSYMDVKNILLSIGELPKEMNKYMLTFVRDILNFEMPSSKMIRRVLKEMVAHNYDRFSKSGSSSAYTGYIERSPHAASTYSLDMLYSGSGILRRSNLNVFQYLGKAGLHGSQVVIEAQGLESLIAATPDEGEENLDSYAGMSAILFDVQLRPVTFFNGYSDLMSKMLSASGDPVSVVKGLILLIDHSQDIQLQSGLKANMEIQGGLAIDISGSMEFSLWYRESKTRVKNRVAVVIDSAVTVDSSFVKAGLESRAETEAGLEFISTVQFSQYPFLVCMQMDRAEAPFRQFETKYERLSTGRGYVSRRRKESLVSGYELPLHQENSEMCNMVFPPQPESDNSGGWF
Type: biochemical
Protocol: Analysis of the Inhibition of MTP Activity
The inhibition of the activity of microsomal triglyceride transfer protein (MTP) was tested by using the following operating protocol.
The inhibition of MTP activity with a compound can be quantified by observing the inhibition of the transfer of a labelled triglyceride, from a donor particle to an acceptor particle, in the presence of MTP. The procedure for the preparation of MTP is based on the method by Wetterau and Zilversmit (Biochem. Biophys. Acta (1986) 875, 610). A few grams of golden hamster liver are taken and then rinsed several times in a 250 mM sucrose solution at 0° C. All the following steps proceed at +4° C. A homogenate at a concentration of 50% in 250 mM sucrose is prepared using a Teflon mill and then centrifuged for 10 minutes at 10 000×g at +4° C. The supernatant is then centrifuged at 105 000×g for 75 minutes at +4° C. The supernatant is discarded and the microsomal pellet is taken up in 3 ml (per g of starting liver) of Tris/HCl 150 mM pH 8.0. 1-ml aliquot fractions are stored at −80° C. until the time of use.
After thawing a fraction of microsomes (1 ml), 12 ml of refrigerated Tris/HCl 50 mM, KCl 50 mM, MgCl2 5 mM pH 7.4 buffers and 1.2 ml of deoxycholate (0.54% in water) are added. After incubation for 30 minutes at +4° C. with gentle agitation, the suspension is centrifuged at 105 000×g for 75 minutes. The supernatant comprising the soluble MTP is dialysed against Tris/HCl 150 mM, NaCl 40 mM, EDTA 1 mM, 0.02% sodium azide pH 7.4 buffer (5 times one litre over 2-3 days). The MTP is stored at +4° C., is stable for at least 30 days and is used in unmodified form in the test.
The donor particles (liposomes) are prepared from 208 μl of L-phosphatidylcholine at a concentration of 10 mg/ml in chloroform, and 480 μl of [3H]-triolein at a concentration of 0.5 mCi/ml in toluene. After stirring, the solution is evaporated under nitrogen, taken up in 6 ml of Tris/HCl 50 mM, KCl 50 mM, MgCl2 5 mM pH 7.4 buffer and incubated in an ultrasound bath for 30 minutes at room temperature. The liposomes are stored at +4° C. and sonicated again for 10 minutes before each use.
The acceptor particles are biotinylated low density lipoproteins (LDL-biot). These particles are supplied by the company Amersham.
The reaction mixture is prepared in untreated ½ well white plates (Corning Costar) by addition, in the following order, of: 5 μl of HEPES 50 mM, NaCl 150 mM, BSA 0.1% (w/v), 0.05% sodium azide (w/v), pH 7.4 buffer; 5 μl of liposome; 5 μl of LDL-biot; 5 μl of test products in DMSO; 5 μl of MTP. After incubation for 18-24 hours at 37° C., the reaction is stopped by adding 100 μl of Amersham SPA (Scintillation Proximity Assay) beads coupled to streptavidin, and the radioactivity is counted using a Top Count (Packard) machine at least one hour later. The inhibition of the transfer of the triglycerides with a compound is reflected by a reduction in the transferred radioactivity.
The results are expressed in terms of the IC50, i.e. the concentration that allows a 50% inhibition of MTP.

`C=CCNC(=O)N1CCC(Oc2cccc(NC(=O)c3cccc(C)c3-c3ccc(OC(F)(F)F)cc3)c2)CC1` [Example 32, 4-[3-[[[6-methyl-4′-(trifluoromethoxy)[1,1′-biphenyl]-2-yl]carbonyl]amino]phenoxy]-N-2-propenyl-1-piperidinecarboxamide] was tested. Which IC50 did it give?
The IC50 was 161 nM.

For `O=C(Nc1cccc(OC2CCN(C(=O)c3cccnc3)CC2)c1)c1ccccc1-c1ccc(OC(F)(F)F)cc1` [Example 118, N-[3-[[1-(3-pyridinylcarbonyl)-4-piperidin-yl]oxy]phenyl]-4′-(trifluoromethoxy)[1,1′-biphenyl]-2-carboxamide], which IC50 is on record?
The IC50 was 202 nM.

Which IC50 does the source give for `CCOC(=O)CCCCCNC(=O)N1CCC(Oc2cccc(NC(=O)c3cccc(C)c3-c3ccc(OC(F)(F)F)cc3)c2)CC1` [Example 45, ethyl 6-[[[4-[3-[[[6-methyl-4′-(trifluorometh-oxy)[1,1′-biphenyl]-2-yl]carbonyl]amino]-phenoxy]-1-piperidinyl]carbonyl]amino]-hexanoate] here?
The IC50 was 779 nM.

With `Cc1cccc(C(=O)Nc2cccc(OC3CCN(C(=O)c4ccc([N+](=O)[O-])cc4)CC3)c2)c1-c1ccc(OC(F)(F)F)cc1` [Example 114, 6-methyl-N-[3-[[1-(4-nitrobenzoyl)-4-piperidinyl]oxy]phenyl]-4′-(trifluorometh-oxy)[1,1′-biphenyl]-2-carboxamide] as the compound, how does the IC50 read?
Its IC50 is 202 nM.

With `COc1ccc(C(=O)N2CCC(Oc3cccc(NC(=O)c4ccccc4-c4ccc(OC(F)(F)F)cc4)c3)CC2)cc1` [Example 138, N-[3-[[1-(4-methoxybenzoyl)-4-piperidin-yl]oxy]phenyl]-4′-(trifluoromethoxy)[1,1′-biphenyl]-2-carboxamide] as the compound, how does the IC50 read?
The IC50 was 221 nM.

How did the IC50 turn out when `Cc1cccc(C(=O)Nc2cccc(OC3CCN(C(=O)NC(C)(C)C)CC3)c2)c1-c1ccc(OC(F)(F)F)cc1` [Example 28, N-(1,1-dimethylethyl)-4-[3-[[[6-methyl-4′-(trifluoromethoxy)[1,1′-biphenyl]-2-yl]-carbonyl]amino]phenoxy]-1-piperidine-carboxamide] was run?
The IC50 was 232 nM.

For `CSc1ccc(NC(=O)N2CCC(Oc3cccc(NC(=O)c4cccc(C)c4-c4ccc(OC(F)(F)F)cc4)c3)CC2)cc1` [Example 39, N-[4-(methylthio)phenyl]-4-[3-[[[6-methyl-4′-(trifluoromethoxy)[1,1′-biphenyl]-2-yl]-carbonyl]amino]phenoxy]-1-piperidine-carboxamide], which IC50 is on record?
The IC50 was 85.7 nM.

How did the IC50 turn out when `Cc1cccc(C(=O)Nc2cccc(OC3CCN(Cc4cc5ccccc5o4)CC3)c2)c1-c1ccc(OC(F)(F)F)cc1` [Example 60, N-[3-[[1-(2-benzofuranylmethyl)-4-piperi-dinyl]oxy]phenyl]-6-methyl-4′-(trifluoro-methoxy)-[1,1′-biphenyl]-2-carboxamide] was run?
The IC50 was 240 nM.

With `Cc1cccc(C(=O)Nc2cccc(OC3CCN(C(=O)c4cccs4)CC3)c2)c1-c1ccc(OC(F)(F)F)cc1` [Example 99, 6-methyl-N-[3-[[1-(2-thienylcarbonyl)-4-piperidinyl]oxy]phenyl]-4′-(trifluorometh-oxy)[1,1′-biphenyl]-2-carboxamide] as the compound, how does the IC50 read?
Its IC50 is 416 nM.

`Cc1cccc(C(=O)Nc2cccc(OC3CCN(S(=O)(=O)c4cccc5nonc45)CC3)c2)c1-c1ccc(OC(F)(F)F)cc1` [Example 20, N-[3-[[1-(2,1,3-benzoxadiazol-4-yl-sulfonyl)-4-piperidinyl]oxy]phenyl]-6-methyl-4′-(trifluoromethoxy)[1,1′-biphenyl]-2-carboxamide] was tested. Which IC50 did it give?
Its IC50 is 392 nM.

`Cc1cccc(C(=O)Nc2cccc(OC3CCN(Cc4cccs4)CC3)c2)c1-c1ccc(OC(F)(F)F)cc1` [Example 59, [1,1′-biphenyl]-6-methyl-N-[3-[[1-(2-thienylmethyl)-4-piperidinyl]oxy]phenyl]-4′-(trifluoromethoxy)-2-carboxamide] was tested. Which IC50 did it give?
The IC50 was 186 nM.

With `Cc1ccccc1NC(=O)N1CCC(Oc2cccc(NC(=O)c3cccc(C)c3-c3ccc(OC(F)(F)F)cc3)c2)CC1` [Example 62, N-(2-methylphenyl)-4-[3-[[[6-methyl-4′-(trifluoromethoxy)[1,1′-biphenyl]-2-yl]-carbonyl]amino]phenoxy]-1-piperidine-carboxamide] as the compound, how does the IC50 read?
The IC50 was 119 nM.

`Cc1ccc(C(=O)N2CCC(Oc3cccc(NC(=O)c4cccc(C)c4-c4ccc(OC(F)(F)F)cc4)c3)CC2)cc1` [Example 116, 6-methyl-N-[3-[[1-(4-methylbenzoyl)-4-piperidinyl]oxy]phenyl]-4′-(trifluorometh-oxy)[1,1′-biphenyl]-2-carboxamide] was tested. Which IC50 did it give?
Its IC50 is 49.4 nM.

For `CC(C)(C)OC(=O)N1CCC(Oc2cccc(NC(=O)c3ccccc3-c3ccc(OC(F)(F)F)cc3)c2)CC1` [Example 67, 1,1-dimethylethyl 4-[3-[[[4′-(trifluorometh-oxy)[1,1′-biphenyl]-2-yl]carbonyl]amino]-phenoxy]-1-piperidinecarboxylate], which IC50 is on record?
Its IC50 is 234 nM.

`Cc1cccc(C(=O)Nc2cccc(OC3CCN(C(=O)Nc4cccc(C#N)c4)CC3)c2)c1-c1ccc(OC(F)(F)F)cc1` [Example 37, N-(3-cyanophenyl)-4-[3-[[[6-methyl-4′-(trifluoromethoxy)[1,1′-biphenyl]-2-yl]-carbonyl]amino]phenoxy]-1-piperidine-carboxamide] was tested. Which IC50 did it give?
The IC50 was 65.2 nM.

`Cc1cccc(C(=O)Nc2cccc(OC3CCN(C(=O)NC(C)C)CC3)c2)c1-c1ccc(OC(F)(F)F)cc1` [Example 30, N-(1-methylethyl)-4-[3-[[[6-methyl-4′-(trifluoromethoxy)[1,1′-biphenyl]-2-yl]-carbonyl]amino]phenoxy]-1-piperidine-carboxamide] was tested. Which IC50 did it give?
Its IC50 is 369 nM.

How did the IC50 turn out when `C/C=C/C(=O)N1CCC(Oc2cccc(NC(=O)c3ccccc3-c3ccc(OC(F)(F)F)cc3)c2)CC1` [Example 137, N-[3-[[1-[(2E)-1-oxo-2-butenyl]-4-piperi-dinyl]oxy]phenyl]-4′-(trifluoromethoxy)-[1,1′-biphenyl]-2-carboxamide] was run?
The IC50 was 209 nM.

How did the IC50 turn out when `Cc1cccc(C(=O)Nc2cccc(OC3CCN(C(=O)OC(C)(C)C)CC3)c2)c1-c1ccc(OC(F)(F)F)cc1` [Example 1, 1,1-dimethylethyl 4-[3-[[[6-methyl-4′-(trifluoromethoxy)[1,1′-biphenyl]-2-yl]carbonyl]amino]phenoxy]-1-piperidine-carboxylate] was run?
The IC50 was 421 nM.

How did the IC50 turn out when `Cc1cccc(C(=O)Nc2cccc(OC3CCN(C(=O)Nc4ccc(F)cc4)CC3)c2)c1-c1ccc(OC(F)(F)F)cc1` [Example 25, N-(4-fluorophenyl)-4-[3-[[[6-methyl-4′-(trifluoromethoxy)[1,1′-biphenyl]-2-yl]-carbonyl]amino]phenoxy]-1-piperidine-carboxamide] was run?
The IC50 was 367 nM.
